Tests used:
neosubstrate degradation = settings: relative to lenalidomide; cited from earlier work
6XHis-CRBN-DDB1 protein = 6XHis-CRBN-DDB1 protein (Homo sapiens (Human), UniProt Q96SW2); test: CRBN fluorescence polarization assay (competitive, Cy5-O-Len probe); assay type: binding; settings: 6XHis-CRBN-DDB1 200 nM, Cy5-O-Len probe 30 nM, 1 hour; mean of three determinations; read-out: CRBN FP (IC50)
Description: In this competitive fluorescent polarization assay Cy5 conjugated lenalidomide analog (Cy5—O-Len)^1 was used as a fluorescent probe. 6XHis-CRBN-DDB1 protein (200 nM) and Cy5—O-Len probe (30 nM) were combined in 20 mM HEPES pH 7, 150 mM NaCl, 0.005% Tween-20 assay buffer. 20 μL of this assay cocktail was dispensed into wells of Corning 3821 black 384-well plates. Compounds were transferred to the assay plate from a dose-response plate using a Pintool on a Biomek FXP Laboratory Automation Workstation (Beckman Coulter). The plates were incubated in the dark for 1 hour at room temperature and then read on an Envision plate reader (PerkinElmer, Massachusetts, USA). IC50 values were determined using a proprietary software RISE (Robust Investigation of Screening Experiments), developed in house on the Pipeline Pilot platform (Biovia, v. 17.2.0). Data represent the mean of three independent determinations.

MOLM-13 cells = test: Cell proliferation assay (Cell Titer-Glo, 72 h); assay type: cell-based; settings: Homo sapiens, 72 h incubation, * = cytostatic 50%
Description: MOLM-13 cell line was purchased from the Leibniz Institute DSMZ (ACC 554). The cells were cultured according to recommendations in RPMI 1640 cell culture media with 20% FBS (DSMZ). Exponentially growing MOLM-13 cells were plated at 1250 cells per well in Corning 8804BC white 384-well assay plates and incubated overnight at 37° C. in a humidified 5% CO2 incubator. Compounds were transferred to the assay plate from a dose-response plate using a Pintool on a Biomek FXP Laboratory Automation Workstation (Beckman Coulter). Cytotoxicity was determined following 72 hours of incubation using Promega Cell Titer Glo reagent according to the manufacturer's recommendation. Luminescence was measured on an Envision plate reader (Perkin-Elmer).
Compounds were screened in human cancer cell lines and each cell line was cultured in the complete medium recommended by the vendor and seeded in Corning 8804BC white 384-well assay plates at density of 1250 cells per well for MOLM-13 cells. After overnight incubation at 37° C. in a humidified 5% CO2 incubator, cells were treated with compounds in dose-response format using a Pintool on a Biomek FXP Laboratory Automation Workstation (Beckman Coulter). After 72h incubation, cell proliferation was assessed using Cell Titer-Glo (CTG) luminescent cell viability assay (Promega) according to the manufacturer's instruction. Luminescence signal was measured using an Envision plate reader (Perkin-Elmer).

| IC50 (6XHis-CRBN-DDB1 protein) [nM] | EC50 (MOLM-13 cells) [nM] | SMILES | fold more potent in cells than lenalidomide (neosubstrate degradation) [fold] |
| --- | --- | --- | --- |
|  |  | O=C1CC[C@H](N2Cc3c(OCc4ccc(CN5CCOCC5)cc4)cccc3C2=O)C(=O)N1 [CC-220] | 10 |
| > 10000 | > 10000 | COc1ccc(C(=O)NCc2cccc3c2CN(C2CCC(=O)NC2=O)C3=O)cc1 (stereo not shown) [Compound 25, N-((2-(2,6-dioxopiperidin-3-yl)-1-oxoisoindolin-4-yl)methyl)-4-methoxybenzamide] |  |
| 1000 to 10000 | < 1000 | O=C1CCC(N2Cc3c(CNC(=O)c4ccc(F)cc4Cl)cccc3C2=O)C(=O)N1 (stereo not shown) [Compound 17, 2-chloro-N-((2-(2,6-dioxopiperidin-3-yl)-1-oxoisoindolin-4-yl)methyl)-4-fluorobenzamide] |  |
| 1000 to 10000 | > 10000 | O=C1CCC(N2Cc3c(CNC(=O)c4ccccc4C(F)(F)F)cccc3C2=O)C(=O)N1 (stereo not shown) [Compound 4, N-((2-(2,6-dioxopiperidin-3-yl)-1-oxoisoindolin-4-yl)methyl)-2-(trifluoromethyl)benzamide] |  |
| < 1000 | < 1000 | O=C1CCC(N2Cc3c(CNC(=O)c4cccc(Cl)c4)cccc3C2=O)C(=O)N1 (stereo not shown) [Compound 3, 3-chloro-N-((2-(2,6-dioxopiperidin-3-yl)-1-oxoisoindolin-4-yl)methyl)benzamide] |  |
| 1000 to 10000 | < 1000 | O=C1CCC(N2Cc3c(CNC(=O)c4ccccc4Nc4ccccc4)cccc3C2=O)C(=O)N1 (stereo not shown) [Compound 45, N-((2-(2,6-dioxopiperidin-3-yl)-1-oxoisoindolin-4-yl)methyl)-2-(phenylamino)benzamide] |  |
| 1000 to 10000 | < 1000 | O=C1CCC(N2Cc3c(CNC(=O)c4ccc(Cl)c(F)c4)cccc3C2=O)C(=O)N1 (stereo not shown) [Compound 19, 4-chloro-N-((2-(2,6-dioxopiperidin-3-yl)-1-oxoisoindolin-4-yl)methyl)-3-fluorobenzamide] |  |
| < 1000 | > 10000 | O=C1CCC(N2Cc3c(CNC(=O)c4cc(C(F)(F)F)cc(Cl)c4F)cccc3C2=O)C(=O)N1 (stereo not shown) [Compound 35, 3-chloro-N-((2-(2,6-dioxopiperidin-3-yl)-1-oxoisoindolin-4-yl)methyl)-2-fluoro-5-(trifluoromethyl)benzamide] |  |
| 1000 to 10000 | < 1000 | COc1cccc(C(=O)NCc2cccc3c2CN(C2CCC(=O)NC2=O)C3=O)c1 (stereo not shown) [Compound 1, N-((2-(2,6-dioxopiperidin-3-yl)-1-oxoisoindolin-4-yl)methyl)-3-methoxybenzamide] |  |
| 1000 to 10000 | < 1000 | O=C1CCC(N2Cc3c(CNC(=O)c4ccc(C(F)(F)F)c(F)c4)cccc3C2=O)C(=O)N1 (stereo not shown) [Compound 16, N-((2-(2,6-dioxopiperidin-3-yl)-1-oxoisoindolin-4-yl)methyl)-3-fluoro-4-(trifluoromethyl)benzamide] |  |
| < 1000 | < 1000 | O=C1CCC(N2Cc3c(CNC(=O)c4ccc(F)c(C(F)(F)F)c4)cccc3C2=O)C(=O)N1 (stereo not shown) [Compound 22, N-((2-(2,6-dioxopiperidin-3-yl)-1-oxoisoindolin-4-yl)methyl)-4-fluoro-3-(trifluoromethyl)benzamide] |  |
| 1000 to 10000 | < 1000 | O=C1CCC(N2Cc3c(CNC(=O)c4ccc(OC(F)(F)F)cc4)cccc3C2=O)C(=O)N1 (stereo not shown) [Compound 34, N-((2-(2,6-dioxopiperidin-3-yl)-1-oxoisoindolin-4-yl)methyl)-4-(trifluoromethoxy)benzamide] |  |
| < 1000 | > 10000 | O=C1CCC(N2Cc3c(CNC(=O)c4c(F)ccc(F)c4Cl)cccc3C2=O)C(=O)N1 (stereo not shown) [Compound 33, 2-chloro-N-((2-(2,6-dioxopiperidin-3-yl)-1-oxoisoindolin-4-yl)methyl)-3,6-difluorobenzamide] |  |
| < 1000 | < 1000 | O=C1CCC(N2Cc3c(CNC(=O)c4ccc(F)c(Cl)c4)cccc3C2=O)C(=O)N1 (stereo not shown) [Compound 15, 3-chloro-N-((2-(2,6-dioxopiperidin-3-yl)-1-oxoisoindolin-4-yl)methyl)-4-fluorobenzamide] |  |
| 1000 to 10000 | < 1000 | O=C1CCC(N2Cc3c(CNC(=O)c4cccc(C(F)F)c4)cccc3C2=O)C(=O)N1 (stereo not shown) [Compound 23, 3-(difluoromethyl)-N-((2-(2,6-dioxopiperidin-3-yl)-1-oxoisoindolin-4-yl)methyl)benzamide] |  |
| 1000 to 10000 | < 1000 | O=C1CCC(N2Cc3c(CNC(=O)c4cccc(F)c4)cccc3C2=O)C(=O)N1 (stereo not shown) [Compound 9, N-((2-(2,6-dioxopiperidin-3-yl)-1-oxoisoindolin-4-yl)methyl)-3-fluorobenzamide] |  |
